# According to patent US10400263B2, “Tripeptide rhodamine compound” (Kingston Uninversity Higher Education Corporation, priority 2012, dated 2019):
# Residues, ends and D or L forms follow the SMILES beside them. *: point of attachment. AMC = Cc1cc(=O)oc2cc(N*)ccc12; Boc = CC(C)(C)OC(=O)*
# Tests used:
# MRSA and MSSA [1] = test: Coumarin staphylocoagulase assay, MRSA and MSSA; type: cell-based, Staphylococcus aureus; details: 100 μM coumarin; MRSA and MSSA 10^6 and 10^5; FIG. 11
# Method: (§1) As described for the LGX system, clinical isolates of Methicillin Resistant Staphylococcus Aureus (MRSA), Methicillin Sensitive Staphylococcus Aureus (MSSA), Staphylococcus Epidermidis and Eschericia coli were cultured on nutrient agar prior to being grown overnight in nutrient broth under shaking conditions at 37° C. To determine the effects of varying bacterial concentrations with respect to bacterial strains and N-t-BOC-val-pro-arg-7-amido-4-methylcoumarin concentrations on staphylocoagulase activity, a direct comparison between the LGX system and the existing use of N-t-BOC-val-pro-arg-7-amido-4-methylcoumarin as a means of detecting staphylocoagulase was necessary (Ford et al, 1999).
# (§2) 100 μM and 500 μM solutions of coumarin solution were prepared in 1×PBS with the addition of 0.05 M Tris Buffer and 0.1 M NaCl to maintain a pH of 8.5 using N-t-BOC-val-pro-arg-7-amido-4-methylcoumarin dissolved in MeOH. Furthermore, 100 μM and 500 μM of human prothrombin was added to the solution. 90 μl of […] of N-t-BOC-val-pro-arg-7-amido-4-methylcoumarin solution was added to varying concentrations of bacteria (10^6, 10^5, 10^4, 10^3, 10^2 and 10^0, respectively) in a microliter plate and staphylocoagulase activity determined by fluorescence spectrophotometry (Excitation of 355 nm, Emmission of 460 nm) at 15 minute intervals over a 6 hour time period. […]
# [2] = system: MRSA, MSSA, S. epidermidis and E. coli; test: Coumarin assay, absorbance at 385 nm, all bacterial types; type: cell-based; details: 100 μM coumarin, FIG. 15
# Method: To compare the efficacy of this staphylocoagulase assay with current, well established “gold standard” methods of coagulase detection such as a coumarin assay, coagulase test and latex agglutination test, bacterial isolates were prepared in suspension as above and clinical isolates of each respective strain was cultured overnight on nutrient agar. 90 μl of bacterial suspension was added to a solution consisting of 100 μM solutions of N-t-BOC-val-pro-arg-7-amido-4-methylcoumarin prepared in 1×PBS with the addition of 0.05 M Tris Buffer and 0.1 M NaCl to maintain a pH of 8.5. Staphylocoagulase activity was determined by measuring the absorbance at 385 nm at 15 minute intervals over a 6 hour time period. It should be noted that a concentration of 795 μM of the coumarin dye is usually required post-culture (10^6-10^8 bacteria) in order to observe a significant chromogenic response.
# MSSA = test: Coumarin staphylocoagulase fluorescence assay, MSSA; type: cell-based, Staphylococcus aureus; details: 500 μM coumarin; MSSA 10^6; FIG. 10
# Method: as §1, §2
# MRSA and MSSA [3] = details: post-culture (10^6-10^8 bacteria); cited from earlier work
# [4] = system: MRSA, MSSA, S. epidermidis and E. coli; test: Coumarin staphylocoagulase fluorescence assay, all four bacterial species; type: cell-based; details: 500 μM coumarin, FIG. 10
# Method: as §1, §2
# bacterial viability = test: Effect of methanol on bacterial viability (colony count); type: cell-based; details: 2 hours incubation, all bacteria concentrations (10^2-10^6), plated on nutrient agar overnight
# Method: Tests were also run to validate that the methanol had no adverse effects on the growth of a number of bacterial strains up to a ˜5% methanol solution. Varying concentrations of methanol (0.25%, 0.5%, 1%, 2.5 5, 4% and 5%) were incubated with each bacterial species also at varying concentrations (10^2-10^6) for 2 hours prior to plating on nutrient agar to assess the effects of the solvent on bacterial viability.
Structure (SMILES),discrimination between bacterial samples by fluorescence (MRSA and MSSA [1]),"absorbance over the 6 hour time period ([2]; 10^5, 10^4, 10^3 and 10^2)",absorbance over the 6 hour time period ([2]; 10^6 of all bacterial types),fluorescence (MSSA),concentration usually required to observe a significant chromogenic response (MRSA and MSSA [3]) [µM],discrimination between bacterial species by fluorescence ([4]; all bacterial species 10^6),"fluorescence over the 6 hour time period ([4]; high and low concentrations of MRSA, MSSA, S. epidermidis and E. coli)",methanol concentration up to which bacterial viability was not compromised (bacterial viability)
Cc1cc(=O)oc2cc(NC(=O)[C@H](CCCNC(=N)N)NC(=O)[C@@H]3CCCN3C(=O)[C@@H](NC(=O)OC(C)(C)C)C(C)C)ccc12 [N-t-BOC-val-pro-arg-7-amido-4-methylcoumarin] (Boc-Val-Pro-Arg-{AMC}),no discrimination between bacterial samples,no increase or variance between bacterial strains,little increase over the 6 hour time period,a slight increase was observed,795,little discrimination between the fluorescence of all samples,no increase in fluorescence was observed,–
CO [methanol],–,–,–,–,–,–,–,up to 4%
